The values below come from patent publication US20250161310A1, “PHARMACEUTICAL COMBINATIONS FOR USE IN THE TREATMENT OF NEOPLASTIC DISEASES” (priority 2022, published 2025).

Where two headings read alike, the source gives them in different places. Marks after values point to notes of the source that are not given here.

Series [1] concerns BR1282 TNBC PDX tumor. Description: second PDX combination study (compound of formula (I) first), BR1282. As for the experimental part:
In a second PDX study, the same model was used as for the first study (TNBC BR1282 PDX model), but this time compound of formula (I) (8 mg/kg, i.v., qw, 5 mL/kg) was administered first and carboplatin (60 mg/kg, i.v., qw, 6 mL/kg) second using a 4 h gap between both administrations and compound of formula (I) was provided qw. Consequently, the mice received both compounds on the same day (4 h gap).
(§1) Carboplatin was purchased from Qilu Pharmaceutical Co. Ltd. as a solution (10 mg/mL in 5% (w/v) glucose in pure water). The compound of formula (I) was supplied as a powder by Basilea Pharmaceutica International Ltd. and was prepared freshly as a solution in Ethanol:PEG400:Citric acid 20 mM, at a ratio of 1:1:8 and at a final pH of 3.7, for immediate administration.
(§2) Body weights and tumor volumes were determined at least twice per week, the latter by measuring two dimensions with calipers and applying the formula “V=(L×W^2)/2”, where V is the tumor volume, and L and W are the tumor length and width re-spectively. […] Mice were also culled if the BWL was determined to be >15% for 3 consecutive days. Any mice with >10% BWL, automatically were dosed on one of the following days, as soon as the BWL returned to <10%. All animal protocols were reviewed and approved by the relevant local committees in China, where the studies were performed.
(§3) The statistical significance of efficacy were determined in two different ways using a) the endpoint on day 10 or day 14 depending on the study when it was necessary to cull the vehicle group because of tumor volume exceeding 1500 mm^3, and b) at the endpoint of day 31 in the first study when exponential curve fits were applied to estimate the rates of tumor growth in the different groups. The degree of an effect was quantified by the delta (A) treated/control ratio (ΔT/C) and the statistical significance of the effect was determined by a one-way analysis of variance (1W-ANOVA) with Holms-Sidak applied post-hoc for multiple determinations, where a p-value of <0.05 was considered statistically significant. In addition, an assessment of the combination effect was made based upon the Clarkes Combination Index (CCI), where the CCI=ΔT/CAB−(ΔT/CA*ΔT/CB) in which A and B are two different compounds and AB the combination thereof, where CCI<−0.1 indicates synergy (or a positive interaction), +0.1 (antagonism, or a negative interaction) and between −0.1 and +0.1 indicates additivity (no interaction); see O'Reilly et al. Anti Cancer Drugs 2011; 22:58-78.

Series [2] has as its target T1, TTK kinase domain (amino acids 519-808) (Homo sapiens, UniProt P33981).
T1 construct: recombinant expressed TTK kinase domain (amino acids 519-808)
T1 sequence (P33981 519-808): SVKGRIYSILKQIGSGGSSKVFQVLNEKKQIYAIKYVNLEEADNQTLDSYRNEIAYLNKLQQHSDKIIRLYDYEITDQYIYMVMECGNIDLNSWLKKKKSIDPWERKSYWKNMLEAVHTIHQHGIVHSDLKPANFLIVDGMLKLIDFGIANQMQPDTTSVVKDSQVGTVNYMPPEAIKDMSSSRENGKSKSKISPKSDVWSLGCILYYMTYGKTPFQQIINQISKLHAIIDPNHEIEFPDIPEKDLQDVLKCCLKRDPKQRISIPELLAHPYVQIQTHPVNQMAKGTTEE
Description: target residence time assay (Biacore T200 surface plasmon resonance), TTK. The following applies: SPR, 22° C. Format: binding. As to the method: (§4) The affinity, i.e. the equilibrium dissociation constant (KD) (referred to as residence times), of the compound of formula (I) against TTK and PLK1 were determined using a Biacore T200™ surface plasmon resonance instrument using recombinant expressed TTK kinase domain (amino acids 519-808) or biotinylated PLK1. The immobilization of TTK was performed as described in Maia et al. Annals of Oncology, 2015; 26:2180-2192. The immobilization of biotinylated PLK1 was performed as described in Willemsen-Seegers et al. Journal of Molecular Biology, 2017; 429:574-586. The subsequent single cycle kinetic assays were performed at 22° C. using a compound concentration gradient of […], 10, 31.6 and 100 nM for TTK and 10, 31.6, 100, 316 and 1000 nM for PLK1, a contact time of 100 s and a flow rate of […]. The dissociation period was 1200-1800 s and a correction for an unstable surface using a blank run with buffer was performed.
(In general: In SPR one partner is held on a chip, and binding of the other changes the refractive index at the surface.)

The target in series [3] is T2, tumor-derived TTK (Homo sapiens, UniProt P33981).
T2 construct: from tissue; host or cells: MDA-MB-231 xenograft tumours grown in mice
T2 sequence (P33981 1-857): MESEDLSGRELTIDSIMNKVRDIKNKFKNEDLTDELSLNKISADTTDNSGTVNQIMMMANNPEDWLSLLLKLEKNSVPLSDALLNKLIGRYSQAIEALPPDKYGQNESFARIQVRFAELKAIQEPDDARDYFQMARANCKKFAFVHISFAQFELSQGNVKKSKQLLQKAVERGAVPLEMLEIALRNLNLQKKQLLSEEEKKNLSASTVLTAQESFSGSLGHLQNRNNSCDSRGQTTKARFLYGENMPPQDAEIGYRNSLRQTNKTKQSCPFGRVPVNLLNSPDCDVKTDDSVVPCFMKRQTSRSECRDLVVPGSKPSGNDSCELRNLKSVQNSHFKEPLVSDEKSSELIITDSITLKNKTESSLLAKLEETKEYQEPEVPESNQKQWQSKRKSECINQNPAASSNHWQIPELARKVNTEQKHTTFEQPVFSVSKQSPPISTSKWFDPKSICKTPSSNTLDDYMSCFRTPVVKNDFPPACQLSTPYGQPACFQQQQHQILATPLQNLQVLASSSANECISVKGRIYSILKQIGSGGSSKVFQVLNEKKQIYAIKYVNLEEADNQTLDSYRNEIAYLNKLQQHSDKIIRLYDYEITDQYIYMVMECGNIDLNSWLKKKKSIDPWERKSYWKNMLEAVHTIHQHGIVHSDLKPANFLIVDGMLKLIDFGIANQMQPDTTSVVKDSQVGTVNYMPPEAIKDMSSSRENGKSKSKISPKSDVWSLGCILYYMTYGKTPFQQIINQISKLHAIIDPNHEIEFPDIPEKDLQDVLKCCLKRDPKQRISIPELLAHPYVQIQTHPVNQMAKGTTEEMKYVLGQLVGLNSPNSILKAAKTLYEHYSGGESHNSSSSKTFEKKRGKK
In words: tumor TTK target occupancy in MDA-MB-231 xenograft-bearing mice. Format: in vivo. The following applies: MDA-MB-231 tumors. As for the experimental part: Prolonged TTK target occupancy was also measured in tumors derived from MDA-MB-231 xenograft-bearing mice treated with intermittent i.v. dosing regimen of compound of formula (I). […]

The subject of series [4] is SKOV-3 s.c. xenografts. Type of series: in vivo. The following applies: day 23. As for the experimental part:
The anti-tumor activity of the compound of formula (I) in combination with carboplatin was evaluated in an ovarian cancer model, using human SKOV-3 cells grown as a solid tumor xenograft subcutaneously (s.c.) in nude mice.
The maximum tolerated dose (MTD) of the compound of formula (I) in combination with an optimal dose of carboplatin was defined in non-tumor bearing BALB/c nude mice in the experiments described above. […] Thus, in this study, using a human ovarian cell line derived xenograft (CDX) model, that schedule was applied and compared directly with the same order of administration with a 1 hr or 24 hr gap between compounds. In addition, the twice-weekly schedule was compared with a weekly schedule of 7 mg/kg BAL0891 (a weekly dose well below the MTD for compound of formula (I) monotherapy) using a 4 hr gap. Treatments continued until day 24 and tumor volumes and body weight were monitored until day 51.

Series [5] deals with T3, biotinylated PLK1 (Homo sapiens, UniProt P53350).
T3 construct: biotin (biotinylated)
Description: target residence time assay (Biacore T200 surface plasmon resonance), PLK1. Type of series: binding. The following applies: SPR, 22° C. As to the method:
as §4

Series [6] deals with BR1282 TNBC PDX tumor. Description: first PDX combination study (carboplatin first), BR1282. As for the experimental part:
In a first PDX study, female BALB/c nude mice (CrownBio) of at least 20 g body weight were subcutaneously (s.c.) inoculated in the right flank with tumor fragments (3*3*3 mm) from stock mice bearing the patient-derived xenograft (PDX) triple negative breast cancer (TNBC) tumor, BR1282. Randomization into 5 different treatment groups (8 mice per group) was made when the mean tumor size was 150-200 mm^3. Mice were dosed intravenously (i.v.) twice weekly (2qw) with the compound of formula (I) (7 mg/kg, i.v., 5 mL/kg) or once weekly (qw) carboplatin (60 mg/kg, i.v., 10 mL/kg) or the combination of these doses, in which the compound of formula (I) was administered after carboplatin using either a 4 h or a 24 h gap, when both compounds were administered on the same day/consecutive days. The fifth group received both vehicles using the time interval of 4 h and all groups were dosed twice via the tail vein. Dosing was delayed by 1 day in any mice showing transient body weight loss of >10% at any time point.
as §1, §2, §3

In series [7] the test system is patient-derived tumor xenografts, including TNBC and hepatocellular cancer (HCC) models. In words: monotherapy activity against patient-derived tumor xenografts in mice. Format: in vivo. Particulars: data not shown. The source says:
(§5) In cellular systems, the compound of formula (I) has high potency against sensitive cells.
In general terms: In xenograft studies the graft and the host belong to different species.

Series [8] can be described thus: maximum tolerated dose in combination with carboplatin in non-tumor-bearing mice. Format: in vivo. The source says: Carboplatin is standard of care treatment in a number of tumor indications. To determine the combination effect of the compound of formula (I) and carboplatin, the maximum tolerated dose (MTD) of the compound of formula (I) in combination with an optimal dose of carboplatin was first defined in non-tumor-bearing BALB/c nude mice. […]

The test system of series [9] is other kinases. In words: kinase specificity, other kinases versus TTK. Format: biochemical.
Series [10] deals with 18 different triple negative breast cancer cell lines. Description: 5-day anti-proliferative screen of 18 triple negative breast cancer cell lines. Particulars: 120 h; 5-day screen, 18 TNBC cell lines; read-out: median GI50. Type of series: cell-based.
Excerpt: as §5

T3 sequence (P53350 whole entry): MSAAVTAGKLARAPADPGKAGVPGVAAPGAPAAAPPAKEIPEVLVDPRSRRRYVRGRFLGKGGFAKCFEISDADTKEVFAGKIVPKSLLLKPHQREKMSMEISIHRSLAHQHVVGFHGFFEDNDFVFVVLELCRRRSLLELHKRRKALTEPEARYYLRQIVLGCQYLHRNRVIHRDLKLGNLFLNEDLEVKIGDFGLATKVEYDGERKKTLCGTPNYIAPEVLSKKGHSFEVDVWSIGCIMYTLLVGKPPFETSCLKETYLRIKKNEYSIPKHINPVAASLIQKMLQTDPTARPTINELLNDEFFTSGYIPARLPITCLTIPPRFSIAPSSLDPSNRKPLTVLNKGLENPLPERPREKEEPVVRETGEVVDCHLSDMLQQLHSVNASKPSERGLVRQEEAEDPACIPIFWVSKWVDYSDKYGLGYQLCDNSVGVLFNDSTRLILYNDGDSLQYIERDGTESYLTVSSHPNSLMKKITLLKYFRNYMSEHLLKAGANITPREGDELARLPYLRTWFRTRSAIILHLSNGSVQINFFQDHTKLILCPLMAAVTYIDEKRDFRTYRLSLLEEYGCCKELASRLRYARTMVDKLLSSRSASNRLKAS

As a reminder, the GI50 is the concentration that inhibits growth by half. Take `COc1cc(N2CCNCC2)ccc1Nc1ncc2c(n1)-n1ccc(C(=O)Nc3c(C)cccc3C)c1CC2` [Compound of formula (I)]: the “Efficacy: ΔT/C Day 0 up to Day 17” value in series [1] (based on mean rate of growth (k), formula (I) 8 mg/kg qw first, carboplatin 60 mg/kg qw 4 h later) was 0.70. Besides, in [1] (comparator Vehicle), the “k means, Mean difference, Vehicle vs. treatment” value worked out at 0.045 and the “Δ tumor volume on day 14, Mean difference, Vehicle vs. treatment” value is 422.3. The “Efficacy: ΔT/C Day 14” value in series [1] (mean change in tumor volume, formula (I) 8 mg/kg qw i.v. first, carboplatin 60 mg/kg qw i.v. 4 h later) is 0.60. Further, in series [1] (mouse, in vivo), the “Tolerability (Day 14) ΔBW (%)” value was determined as 2.7 ± 2.1% and the “Tolerability (Day 14) ΔT/C” value came to 1.00. Further, in series [2], the “target-residency on TTK” value is given as more than 12 h. Further, the “time TTK completely occupied after last dose” value in series [3] (i.v. twice-weekly, last MTD dose) was “at least 72 h”. The “time tumor-derived TTK fully drug-occupied after last administration” value in series [3] (i.v. weekly MTD dosing, repeat experiment) was “up to 6 days”. Besides, the ΔT/C in series [4] (monotherapy Formula (I) 7 mg/kg iv qw) is on record as 0.69. Also, the ΔT/C in [4] (monotherapy: Formula (I) 7 mg/kg iv 2qw, Carboplatin 60 mg/kg iv qw) was 0.64. For the same compound, in series [5], the “target-residency on PLK1” value is reported as “a few minutes”. Moreover, the “Efficacy: ΔT/C Day 0 up to Day 31” value in series [6] (based on mean rate of growth (k), formula (I) 7 mg/kg 2qw i.v., carboplatin 60 mg/kg qw i.v., carboplatin first) was 0.41***. The “Mean difference of mean rate of growth (k), Vehicle vs. treatment” value in [6] (comparator Vehicle, day 0 to latest day 31) turned out to be 0.084. Further, in series [6] (mean change in tumor volume, formula (I) 7 mg/kg 2qw i.v., carboplatin 60 mg/kg qw i.v., carboplatin first), the “Efficacy: ΔT/C Day 10” value was found to be 0.58. In addition, in series [6] (mouse, in vivo), the “Tolerability (Day 10) ΔBW (%)” value worked out at 0.5 ± 1.6% and the “Tolerability (Day 10) ΔI/C” value turned out to be 0.96. Further, the “activity against patient-derived tumor xenografts” value in series [7] is given as “significant activity”. Besides, the “highest tolerated doses of compound of formula (I) in combination with carboplatin” value in series [8] (2qw i.v., 4 or 24 hours after carboplatin 60 mg/kg qw i.v.) fell in the range of 6 to 7 mg/kg. For the same compound, the “tolerability when compound of formula (I) applied first” value in series [8] (6-8 mg/kg, 24 h gap to carboplatin or 2qw schedule) is reported as “not tolerated”. In series [8] (weekly, carboplatin 60 mg/kg i.v. qw 4 h later), the “tolerated dose of compound of formula (I) when applied before carboplatin” value is reported as 8 mg/kg. Moreover, the “other kinase IC50s higher than those for TTK” value in [9] was “at least 10 fold”. Besides, in series [10], the GI50 was determined as 0.035 µM.
